According to patent publication US10456407B2, “Combination therapy for treating cancer” (Epizyme, Inc., priority 2015, dated 2019):

Key:
Format in all cases: cell-based
[1] = tested on: SMARCB1 protein levels; experiment: SMARCB1 (INI1) western blot in lymphoma cells; details: single agent treatment
Excerpt: Glucocorticoid bound GR molecules move to the nucleus and can act as either transcriptional activator or repressor, depending on the cellular environment. […] Accessibility to GR binding sites can further be enhanced by ATP-dependent chromatin remodeling, and the SWI/SNF complex plays a key role in this activity. Not wishing to be bound by a particular theory or a specific mechanism of action, it is conceivable that aberrant chromatin repression, induced by EZH2 mediated hypertrimethylation of H3K27, can block some of the otherwise accessible GR binding sites, interfering with normal GR mediated gene induction or repression.

[2] = tested on: OCI-Ly19 cells; experiment: RT2 Glucocorticoid signaling PCR array, OCI-LY19 (Table 4a, printed OCT) cell line; details: vs DMSO
[3] = tested on: SU-DHL10 cells; experiment: RT2 Glucocorticoid signaling PCR array, SU-DHL10 (SUDHL10) cell line (Table 4d); details: SUDHL10, 4 days, vs DMSO
[4] = tested on: RL cells; experiment: RT2 Glucocorticoid signaling PCR array, RL (Table 4e, printed RI) cell line; details: 4 days, Cpd44 1 uM, Pred 10-fold below 4-day IC50, vs DMSO, B2M-normalized

## CCN(c1cc(-c2ccc(CN3CCOCC3)cc2)cc(C(=O)NCc2c(C)cc(C)[nH]c2=O)c1C)C1CCOCC1 [Compound 44]
[1]
  SMARCB1 protein levels: no effect
[2]; gene ADARB1
  ΔΔCT, ADARB1: −0.789
[2]; gene AK2
  ΔΔCT, AK2: −0.017
[2]; gene ANGPTL4
  ΔΔCT, ANGPTL4: −0.305
[2]; gene ARID68
  ΔΔCT, ARID68: 0.232
[2]; gene ASPH
  ΔΔCT, ASPH: −0.584
[2]; gene ATF4
  ΔΔCT, ATF4: 0.124
[2]; gene BCL6
  ΔΔCT, BCL6: −1.395
[2]; gene CEBPB
  ΔΔCT, CEBPB: 0.390
[2]; gene COL4A2
  ΔΔCT COL4A2: 0.309
[2]; gene CREB3L4
  ΔΔCT, CREB3L4: −0.376
[2]; gene CTGF
  ΔΔCT CTGF: −0.052
[2]; gene DDIT4
  ΔΔCT, DDIT4: −0.749
[2]; gene DUSP1
  ΔΔCT, DUSP1: −0.395
[2]; gene EHD3
  ΔΔCT, EHD3: −1.081
[2]; gene FK8PS
  ΔΔCT, FK8PS: −0.319
[2]; gene FOSL2
  ΔΔCT, FOSL2: −0.226
[2]; gene GDPD1
  ΔΔCT, GDPD1: −0.020
[2]; gene GLUL
  ΔΔCT GLUL: −0.745
[2]; gene H6PD
  ΔΔCT, H6PD: −0.915
[2]; gene HNRPLL
  ΔΔCT, HNRPLL: −0.346
[2]; gene IL1RN
  ΔΔCT, IL1RN: −1.244
[2]; gene KLF9
  ΔΔCT, KLF9: −1.215
[2]; gene KLF13
  ΔΔCT, KLF13: −0.452
[2]; gene LOX
  ΔΔCT, LOX: −0.733
[2]; gene MERTK
  ΔΔCT MERTK: −0.805
[2]; gene MTZA
  ΔΔCT MTZA: −0.118
[2]; gene NFKBIA
  ΔΔCT, NFKBIA: 0.019
[2]; gene NR3C1
  ΔΔCT, NR3C1: −0.023
[2]; gene PDCC7
  ΔΔCT PDCC7: 0.024
[2]; gene PDGFRB
  ΔΔCT PDGFRB: 0.934
[2]; gene PDP1
  ΔΔCT, PDP1: −0.518
[2]; gene PIK3R1
  ΔΔCT, PIK3R1: −0.274
[2]; gene PLEKHF1
  ΔΔCT, PLEKHF1: −0.736
[2]; gene POU2F1
  ΔΔCT, POU2F1: −0.120
[2]; gene POU2F2
  ΔΔCT, POU2F2: 0.031
[2]; gene RASA3
  ΔΔCT, RASA3: −0.075
[2]; gene RHOB
  ΔΔCT, RHOB: −1.378
[2]; gene SESN1
  ΔΔCT, SESN1: −0.253
[2]; gene SGK1
  ΔΔCT, SGK1: −0.458
[2]; gene SLC10A6
  ΔΔCT, SLC10A6: −1.185
[2]; gene SLC19A2
  ΔΔCT, SLC19A2: −0.211
[2]; gene SLC22A5
  ΔΔCT, SLC22A5: −0.367
[2]; gene SNTA1
  ΔΔCT, SNTA1: −0.908
[2]; gene SPHK1
  ΔΔCT, SPHK1: 0.016
[2]; gene STAT5A
  ΔΔCT, STAT5A: 0.113
[2]; gene STAT5B
  ΔΔCT, STAT5B: −0.121
[2]; gene TNFAIP3
  ΔΔCT, TNFAIP3: 0.317
[2]; gene TSC22D3
  ΔΔCT, TSC22D3: −0.671
[2]; gene USP2
  ΔΔCT, USP2: −2.822
[2]; gene USPS4
  ΔΔCT, USPS4: 0.165
[2]; gene VDR
  ΔΔCT, VDR: −0.553
[2]; gene ZFP36
  ΔΔCT, ZFP36: 0.427
[2]; gene ZHX3
  ΔΔCT, ZHX3: −0.394
[2]; gene ZNF281
  ΔΔCT, ZNF281: 0.531
[3]
  AFF1 ΔΔCT: 0.650
  AMPD3 ΔΔCT: −0.556
  ANGPTL4 ΔΔCT: 0.615
  ANXA4 ΔΔCT: −2.475
  BCL6 ΔΔCT: 0.640
  CEBPB ΔΔCT: 3.019
  CREB1 ΔΔCT: −0.051
  CREB3L4 ΔΔCT: 0.806
  CREB3 ΔΔCT: 0.421
  CYB561 ΔΔCT: −2.399
  DUSP1 ΔΔCT: 1.099
  EHD3 ΔΔCT: −0.855
  FK8PS ΔΔCT: 0.042
  FOSL2 ΔΔCT: −0.063
  GDPD1 ΔΔCT: −1.405
  HNRPLL ΔΔCT: 0.071
  KLF9 ΔΔCT: −1.127
  KLF13 ΔΔCT: −1.636
  NFKBIA ΔΔCT: 0.602
  PDCD7 ΔΔCT: 0.802
  PDP1 ΔΔCT: 0.016
  PER1 ΔΔCT: 0.780
  PIK3R1 ΔΔCT: 0.831
  PLEKHF1 ΔΔCT: 0.469
  POU2F1 ΔΔCT: 0.006
  POU2F2 ΔΔCT: 0.424
  RA5A3 ΔΔCT: 0.385
  RGS2 ΔΔCT: 0.072
  RHOB ΔΔCT: −1.475
  SESN1 ΔΔCT: −1.646
  SGK1 ΔΔCT: 1.943
  SLC10A6 ΔΔCT: −0.648
  SLC19A2 ΔΔCT: −1.413
  SLC22A5 ΔΔCT: −1.733
  SNTA1 ΔΔCT: 0.531
  SPSB1 ΔΔCT: −0.444
  STAT5A ΔΔCT: 0.384
  TBL1XR1 ΔΔCT: 0.234
  TNFAIP3 ΔΔCT: 0.124
  TSC22D3 ΔΔCT: 2.709
  USP2 ΔΔCT: 0.070
  USPS4 ΔΔCT: −0.064
  VLDLR ΔΔCT: 4.246
  ZFP36 ΔΔCT: 0.215
  ZHX3 ΔΔCT: −1.169
  ZNF281 ΔΔCT: −0.437
[4]; ADARB1 mRNA
  ΔΔCT: −1.672
[4]; AFF1 mRNA
  ΔΔCT: −2.005
[4]; AK2 mRNA
  ΔΔCT: 0.268
[4]; ANGPTL4 mRNA
  ΔΔCT: −0.935
[4]; ANXA4 mRNA
  ΔΔCT: −0.562
[4]; ARID68 mRNA
  ΔΔCT: −1.220
[4]; ATF4 mRNA
  ΔΔCT: 0.003
[4]; CEBPB mRNA
  ΔΔCT: −0.004
[4]; COL4A2 mRNA
  ΔΔCT: −0.773
[4]; CREB1 mRNA
  ΔΔCT: 0.205
[4]; CREB3L4 mRNA
  ΔΔCT: −0.760
[4]; CREB3 mRNA
  ΔΔCT: −0.189
[4]; CYB561 mRNA
  ΔΔCT: −1.477
[4]; DDIT4 mRNA
  ΔΔCT: 0.461
[4]; DUSP1 mRNA
  ΔΔCT: −0.321
[4]; EDN1 mRNA
  ΔΔCT: −1.208
[4]; EHD3 mRNA
  ΔΔCT: −0.962
[4]; FK8PS mRNA
  ΔΔCT: 0.388
[4]; GDPD1 mRNA
  ΔΔCT: −0.772
[4]; GLUL mRNA
  ΔΔCT: −2.614
[4]; GOT1 mRNA
  ΔΔCT: 0.518
[4]; H6PD mRNA
  ΔΔCT: −0.673
[4]; HNRPLL mRNA
  ΔΔCT: 0.309
[4]; IL1RN mRNA
  ΔΔCT: −1.881
[4]; IL6R mRNA
  ΔΔCT: −0.515
[4]; IL10 mRNA
  ΔΔCT: −1.432
[4]; KLF13 mRNA
  ΔΔCT: −0.566
[4]; LOX mRNA
  ΔΔCT: −0.580
[4]; MERTK mRNA
  ΔΔCT: −4.419
[4]; MT2A mRNA
  ΔΔCT: 0.577
[4]; NFKBIA mRNA
  ΔΔCT: 0.854
[4]; NR3C1 mRNA
  ΔΔCT: 0.067
[4]; PDCD7 mRNA
  ΔΔCT: 0.006
[4]; PDP1 mRNA
  ΔΔCT: −0.989
[4]; PER1 mRNA
  ΔΔCT: 0.384
[4]; PER2 mRNA
  ΔΔCT: −0.361
[4]; PIK3R1 mRNA
  ΔΔCT: 0.373
[4]; PLEKHF1 mRNA
  ΔΔCT: 0.050
[4]; POU2F1 mRNA
  ΔΔCT: −0.027
[4]; POU2F2 mRNA
  ΔΔCT: −0.584
[4]; RA5A3 mRNA
  ΔΔCT: −0.009
[4]; RGS2 mRNA
  ΔΔCT: −0.162
[4]; SESN1 mRNA
  ΔΔCT: −1.697
[4]; SGK1 mRNA
  ΔΔCT: 0.801
[4]; SLC19A2 mRNA
  ΔΔCT: −0.797
[4]; SNTA1 mRNA
  ΔΔCT: 0.040
[4]; SPHK1 mRNA
  ΔΔCT: −0.781
[4]; SPSB1 mRNA
  ΔΔCT: −0.865
[4]; STAT5A mRNA
  ΔΔCT: 0.001
[4]; STAT5B mRNA
  ΔΔCT: −0.094
[4]; TNF mRNA
  ΔΔCT: −0.837
[4]; TNFAIP3 mRNA
  ΔΔCT: 0.886
[4]; USP2 mRNA
  ΔΔCT: −0.139
[4]; USPS4 mRNA
  ΔΔCT: −0.961
[4]; VDR mRNA
  ΔΔCT: −2.658
[4]; ZHX3 mRNA
  ΔΔCT: 4.661
[4]; ZNF281 mRNA
  ΔΔCT: 0.046
